In ChEMBL document CHEMBL1139830, “Glycosidic juvenogens: derivatives bearing alpha,beta-unsaturated ester functionalities” (2007):
Activity calls are given as the source filed them. The rule behind the calls is not given here.

These compounds were tested on Pyrrhocoris apterus (assay: Juvenilizing effect assessed as inhibition of metamorphosis per individual in red firebug by drinking assay).
Assay type: functional

For `CCOC(=O)/C=C(/C)COc1ccc(C[C@H]2CCCC[C@@H]2O[C@@H]2O[C@H](CO)[C@@H](O)[C@H](O)[C@H]2O)cc1` (stereo in doubt; Z-14a), which Activity is on record?
The Activity was “inactive”.

How did the Activity turn out when `CCOC(=O)/C=C(/C)COc1ccc(C[C@H]2CCCC[C@@H]2O)cc1` (stereo in doubt; Z-2a) was run?
Its Activity is “inactive”.

With `CCOC(=O)/C=C(/C)COc1ccc(C[C@H]2CCCC[C@@H]2O[C@@H]2O[C@H](CO)[C@H](O)[C@H](O)[C@H]2O)cc1` as the compound, how does the ID50 read?
The ID50 was 3 µg.

With `CCOC(=O)/C=C(/C)COc1ccc(C[C@@H]2CCCC[C@@H]2O[C@@H]2O[C@H](CO)[C@H](O)[C@H](O)[C@H]2O)cc1` as the compound, how does the ID50 read?
Its ID50 is 2.3 µg.

How did the ID50 turn out when `CCOC(=O)/C=C(\C)COc1ccc(C[C@@H]2CCCC[C@@H]2O[C@@H]2O[C@H](CO)[C@@H](O)[C@H](O)[C@H]2O)cc1` was run?
Its ID50 is 0.0021 µg.

How did the ID50 turn out when `CCOC(=O)/C=C(\C)COc1ccc(C[C@H]2CCCC[C@@H]2O[C@@H]2O[C@H](CO)[C@H](O)[C@H](O)[C@H]2O)cc1` was run?
The ID50 was 1.9 µg.

With `CCOC(=O)/C=C(\C)COc1ccc(C[C@H]2CCCC[C@@H]2O[C@@H]2O[C@H](CO)[C@@H](O)[C@H](O)[C@H]2O)cc1` as the compound, how does the ID50 read?
The ID50 was 1.3 µg.

With `CCOC(=O)/C=C(\C)COc1ccc(C[C@H]2CCCC[C@@H]2O)cc1` as the compound, how does the ID50 read?
Its ID50 is 0.32 µg.

`CCOC(=O)/C=C(/C)COc1ccc(C[C@@H]2CCCC[C@@H]2O[C@@H]2O[C@H](CO)[C@@H](O)[C@H](O)[C@H]2O)cc1` was tested. Which ID50 did it give?
The ID50 was 1.1 µg.

How did the Activity turn out when `CCOC(=O)/C=C(/C)COc1ccc(C[C@H]2CCCC[C@@H]2O)cc1` (stereo in doubt; Z-2b) was run?
Its Activity is “inactive”.

For `CCOC(=O)/C=C(\C)COc1ccc(C[C@@H]2CCCC[C@@H]2O[C@@H]2O[C@H](CO)[C@H](O)[C@H](O)[C@H]2O)cc1`, which ID50 is on record?
The ID50 was 0.11 µg.

For `CCOC(=O)/C=C(\C)COc1ccc(C[C@@H]2CCCC[C@@H]2O)cc1`, which ID50 is on record?
Its ID50 is 0.05 µg.

Which Activity does the source give for `CCOC(=O)/C=C(/C)COc1ccc(C[C@H]2CCCC[C@@H]2O[C@@H]2O[C@H](CO)[C@@H](O)[C@H](O)[C@H]2O)cc1` (stereo in doubt; Z-14b) here?
Its Activity is “inactive”.

Which ID50 does the source give for `CCOC(=O)/C=C(/C)COc1ccc(C[C@@H]2CCCC[C@@H]2O)cc1` here?
The ID50 was 18 µg.
